{"source": "patent US8840931B2", "about": "“Pharmaceutical compositions for dehydrating, atrophying and eliminating pathological tissues” (priority 2008, dated 2014)", "key": {"bleeding wounds": {"test_system": "bleeding wounds", "assay": "Treatment of bleeding wounds for hemostasis", "format": "in vivo", "conditions": "used for hemostasis", "from_the_text": "The inventors determined that the mechanism of this phenomenon was the dehydration, atrophy, and elimination of blood and blood tissues, rather than the well-known mechanism of an astringent of Monsell in the literature in which hemostasis was caused by forming a thrombus of blood platelet and fibrin, aggregation of erythrocyte, and accelerated coagulation of blood."}, "related diseases": {"test_system": "related diseases", "assay": "Clinical experiment observations (overall statement)", "conditions": "human, in vivo"}}}
{"substance": "ferric subsulfate", "values": [{"measurement": "observation on bleeding wounds", "setting": "bleeding wounds", "value": "formation of black solid particulate matter was observed"}, {"measurement": "clinical use to treat related diseases", "setting": "related diseases", "value": "successfully used"}]}
